The text below walks through data of BindingDB's records for doi:10.7270/Q22R3Q30 (Nmmlsc, 2009).

The structures appear in SMILES notation.

In the assay the target is Cell division control protein 42 homolog (Homo sapiens, UniProt P60953). The experiment in a line: Cdc42 activated mutant GTP-binding inhibitors, SAR follow-up, biochemical, bead-based multiplex flow cytometry, additional SAR set (AID 2021). In general terms: Flow cytometry measures light scatter and fluorescence of single cells or particles in a stream.
Chain of Cell division control protein 42 homolog (P60953 whole entry): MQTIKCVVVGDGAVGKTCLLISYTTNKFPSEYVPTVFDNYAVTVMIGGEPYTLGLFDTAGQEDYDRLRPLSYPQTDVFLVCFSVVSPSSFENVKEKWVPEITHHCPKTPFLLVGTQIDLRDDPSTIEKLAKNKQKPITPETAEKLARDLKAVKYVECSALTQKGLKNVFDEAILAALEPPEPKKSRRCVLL

In turn, `O=C1NC(=O)/C(=C2/C(=O)Nc3ccccc32)N1` yielded a Ki of 0.81 µM. In turn, `O=C1N=c2c(Br)cccc2=C1c1[nH]c2ccccc2c1NO` [7-bromanyl-3-[3-(oxidanylamino)-1H-indol-2-yl]indol-2-one] displayed an inhibition constant Ki of 8.52 µM.

The term Ki denotes the equilibrium dissociation constant of an inhibitor or competing ligand from its target.
